Experimental data: patent US20180333427A1, “ANTI-FATIGUE COMPOSITION AND USE THEREOF” (CHENGZHI LIFE SCIENCE., LTD., priority 2013, published 2018)

Test system: fatigue mice
Assay: Weight loading swimming test of fatigue mice (Example 1)
Type: in vivo, ICR male mice
Details: for restoration of energy / strength in the state of fatigue: control group glucose 1 g/kg; for swimming time of fatigue mice: intragastric, daily dose in three times, swimming continued for three days, ribose 2.5 g/kg, caffeine 75 mg/kg, ribose 1250 mg/kg+caffeine 40 mg/kg
Protocol: The mice swim with the load twice every day, respectively in the morning and afternoon. The sum of the swimming times is recorded as the swimming time for one day. The average of the swimming times for the last two days is taken as a reference, and the mice are kept swimming every day until the day in which the swimming time is below 80% of the reference, and that is considered as fatigue. […] The respective agents are given by intragastric administration with a dosage of 0.2 ml/10 g, and the daily dose is given in three times. The mice are administrated with the agents 30 minutes before swimming in the morning and afternoon, respectively, and administrated again when the furs of the mice dry after swimming in the afternoon. The mice are continued to swim for three days under the prior condition as described in Section 1.2. After swimming, the respective agents are continually administered to the mice 3 times/day for 3 days, except those to be sampled immediately, then taken as materials. […] The swimming time for each group on day 0 is set for 1, the swimming time for each group on day 1, 2 and 3 is compared to that on day 0 respectively, and thereby the change rate (%) is obtained.

Question: With `Cn1c(=O)c2c(ncn2C)n(C)c1=O` [caffeine] as the compound, how does the anti-fatigue effect (fatigue mice, weight loading swimming, three days) read?
Answer: The anti-fatigue effect was “does not produce sustained anti-fatigue effect”.

Question: And the “restoration of energy / strength in the state of fatigue” value (fatigue mice)?
Answer: Its value is “restore some strength in a short time but increase fatigue with the extension of time”.

Question: What about the “swimming time of fatigue mice” value of the same compound?
Answer: The value was “shortened with the extension of training time”.

Question: For `O=C[C@H](O)[C@H](O)[C@H](O)CO` [ribose, D-ribose], which “restoration of energy / strength in the state of fatigue” value (fatigue mice) is on record?
Answer: The value was “restore energy more quickly than the control group”.

Question: And the “swimming time of fatigue mice” value?
Answer: The value was “increased with the extension of training time”.
